Results taken from patent US20150344407A1, “FENDILINE DERIVATIVES AND METHODS OF USE THEREOF” (THE BOARD OF REGENTS OF THE UNIVERSITY OF TEXAS SYSTEM, priority 2012, published 2015).

Tests used:
[1] = system: phosphorylated ERK, a protein activated downstream of K-ras; assay: Western immunoblotting for pERK (inhibition of ERK activation); format: cell-based, canine; settings: Canis lupus familiaris; 4 μM compound, 48 hours, MDCK cells stably expressing GFP-tagged K-rasG12V; whole cell lysates; normalized to vehicle-treated control; read-out: % Inhibition of ERK activation when treated with 4 μM compound
Method: (§1) To determine the effect of compounds on localization of K-ras, Mardine Darby canine kidney epithelial (MDCK) cells stably expressing GFP-tagged K-rasG12V (oncogenic K-ras) grown on cover slips were treated with vehicle or compound (4 μM) for 48 hours and fixed with 4% paraformaldehyde. The coverslips were mounted in Mowiol and imaged by confocal microscopy (Nikon A1) using a 60× objective. Images were analyzed by ImageJ software. Densitometric analysis was performed on images to determine the degree of K-ras mislocalization. To determine the effect of compounds on K-ras function, MDCK cells stably expressing GFP-tagged K-rasG12V were treated with vehicle or compound (4 μM) for 48 hours. Following treatment, whole cell lysates were prepared and subjected SDS-PAGE and western blotting to quantify the level of phosphorylated ERK, a protein activated downstream of K-ras. All calculations were normalized to vehicle-treated control.
Western Immunoblotting for pERK: 2×10^5 cells/well were seeded in 6-well cell culture plates. 24 h after seeding, fresh medium containing 1% vehicle (DMSO) or 4 μM test compound (1:100 dilution, such that DMSO was 1%) was added and incubated for 48 h. Cells were lysed in Buffer B (50 mM Tris [pH 7.5], 75 mM NaCl, 25 mM NaF, 5 mM MgCl2, 5 mM EGTA, 1 mM dithiothreitol, 100 μM NaVO4, 1% Nonidet P-40 plus protease inhibitors). SDS-PAGE and immunoblotting with the anti-phospho-p44/42 mitogen-activated protein kinase (MAPK) (ERK1/2) antibody was performed using 20 μg of each whole cell lysate. Signal was detected by enhanced chemiluminescence (SuperSignal; Pierce, Thermo Fisher Scientific, Rockford, Ill.) and imaged by FluorChemQ (Alpha Inotech, San Leandro, Calif.). Quantification of intensities was performed using FluorChemQ software. Results were normalized to vehicle-treated control.

[2] = target: T1, GFP-tagged K-rasG12V (oncogenic K-ras) in MDCK cells (Homo sapiens, UniProt P01116, G12V); assay: K-ras mislocalization, confocal fluorescence microscopy with densitometric analysis; format: cell-based, canine; settings: 48 hours, MDCK cells stably expressing GFP-tagged K-rasG12V, normalized to vehicle-treated control
T1 construct: mGFP-tagged full length oncogenic mutant K-Ras (GFP-K-RasG12V); expressed in transfected cells
Method: FIGS. 1 & 2—Representative images showing degree of K-ras mislocalization with compound treatment (images corresponds with column 3 of Table 2). MDCK cells stably expressing GFP-tagged K-rasG12V were treated with vehicle or compound (4 μM) for 48 hours and fixed with 4% paraformaldehyde. The coverslips were mounted in Mowiol and imaged by confocal microscopy (Nikon A1) using a 60× objective. The number above each image corresponds the fendiline derivative code.
as §1
Fluorescence microscopy: 2×10^5 or 1×10^5 cells/well were seeded in 6- or 12-well cell culture plates, respectively, containing glass coverslips. 24 h after seeding, fresh medium containing 1% vehicle (Dimethyl sulfoxide, DMSO) or 4 μM test compound (1:100 dilution, such that DMSO was 1%) was added and incubated for 48 h, following which the cells were fixed with 4% paraformaldehyde and coverslips were mounted in Mowiol. Cells were imaged in the GFP wavelength (488 nm) using a confocal microscope (Nikon A1) with 60× objective. Images were saved in tagged imaged file format (tiff) and analyzed by ImageJ software. The densitometric ratio of plasma membrane localized K-Ras versus total K-Ras was calculated and normalized to vehicle-treated control.

[3] = system: chemotaxis; assay: Inhibition of chemotaxis; settings: preliminary data

CC(NCCC(c1ccccc1)c1ccccc1)c1ccccc1 (stereo not drawn) [Fendiline, 3,3-diphenyl-N-(1-phenylethyl)propan-1-amine]
inhibition at 4 µM [1]: 7.37% | % Mislocalization of K-ras when treated with 4 μM compound [2]: 20.53% | Inhibition of chemotaxis [3]: effective at inhibiting chemotaxis at picomolar and nanomolar concentrations
